Patent publication US20190365675A1, “COMPOSITIONS FOR THE PREVENTION AND/OR TREATMENT OF ALCOHOL USE DISORDERS” (SERVICIO ANDALUZ DE SALUD, priority 2016, published 2019)

Experiments:
Format in all cases: in vivo, Wistar rats
[1] = system: IL-1β; experiment: IL-1β mRNA and protein (ELISA) in frontal cortex and plasma after ethanol intoxication; details: OEA pre-treatment
Experimental: (§1) The animals were treated with intragastric (i.g.) ethanol 3 times a day using an i.g. cannula (16G needle, Fisher Scientific, Waltham, Mass., USA), following a protocol based on a slightly modified standard 4-day alcohol intoxication pattern (Bernier et al., 2002a, b) (FIG. 1A). The ethanol doses were administered every 8 h for a total time of 4 days. The rats treated with ethanol received an initial loading dose of 5 g/kg of ethanol in a 30% solution (w/v) and then a maximum maintenance dose of 3 g/kg, which were determined based on blood ethanol levels (BEL). This repeated standard alcohol intoxication paradigm kept BEL intoxication relatively constant in a range of sedation/ataxia (190 to 430 mg/dl, Table 3), according to the 6-point alcohol intoxication behavior scale (Majchrowicz, 1975). The mean dose of ethanol/rat/day (days 1-4) was 7.06 g/kg, similar to other studies (Obernier et al., 2002a, b). OEA (5 mg/kg, i.p., except initial dose of 10 mg/kg i.p.; synthesized as described in Giuffrida et al., 2000) was dissolved in the vehicle (5% Tween-80 in saline solution) and injected 10 minutes before each of the administrations of ethanol by an intragastric gavage. The anti-inflammatory activity of OEA at 10 mg/kg per intraperitoneal route in the frontal cortex before the injection of LPS (Sayd et al., 2014) was previously referred to. In this study, OEA is repeatedly injected as a pre-treatment before each administration of ethanol. […] The quantitative changes in mRNA levels were estimated by means of RT-PCR, carried out in the presence of the SYBR green primer using a 20-L reaction in a Rotor-Gene (Corbett Research®, Mortlake, NSW, Australia). […] The levels of soluble HMGB1, TNF-α, IL-1β and MCP-1 were determined by means of a commercially available enzyme-linked immunosorbent assay kit (ELISA) (Elabscience Biotechnology Co., Ltd., China, for HMGB-1; RayBiotech®, GA, USA, for TNF-α, IL-1β, and MCP-1). The nuclear/cytosol HMGB1 fraction was determined by means of Western blot analysis.

[2] = system: TLR4; experiment: TLR4 mRNA and protein expression in frontal cortex after ethanol intoxication; details: 2-4 h after last ethanol, OEA pre-treatment
Experimental: The animals were treated with intragastric (i.g.) ethanol 3 times a day using an i.g. cannula (16G needle, Fisher Scientific, Waltham, Mass., USA), following a protocol based on a slightly modified standard 4-day alcohol intoxication pattern (Bernier et al., 2002a, b) (FIG. 1A). The ethanol doses were administered every 8 h for a total time of 4 days. The rats treated with ethanol received an initial loading dose of 5 g/kg of ethanol in a 30% solution (w/v) and then a maximum maintenance dose of 3 g/kg, which were determined based on blood ethanol levels (BEL). This repeated standard alcohol intoxication paradigm kept BEL intoxication relatively constant in a range of sedation/ataxia (190 to 430 mg/dl, Table 3), according to the 6-point alcohol intoxication behavior scale (Majchrowicz, 1975). The mean dose of ethanol/rat/day (days 1-4) was 7.06 g/kg, similar to other studies (Obernier et al., 2002a, b). […] The autoradiograph was quantified by densitometry (NIH ImageJ® software, National Biosciences, Lincoln, Nebr. USA) and expressed as optical density (OD). […] The quantitative changes in mRNA levels were estimated by means of RT-PCR, carried out in the presence of the SYBR green primer using a 20-L reaction in a Rotor-Gene (Corbett Research®, Mortlake, NSW, Australia). […]

[3] = system: TNF-α; experiment: TNF-α mRNA and protein (ELISA) in frontal cortex and plasma after ethanol intoxication; details: OEA pre-treatment
Experimental: as §1

CCCCCCCC/C=C\CCCCCCCC(=O)NCCO [OEA, oleoylethanolamide]
Ethanol-induced increase in IL-1β protein levels ([1]; frontal cortex, ELISA): prevented | Ethanol-induced increase in IL-1β mRNA ([1]; frontal cortex): did not prevent | Ethanol-induced increase in IL-1β plasma levels ([1]; plasma, ELISA): prevented | Ethanol-induced TLR4 protein expression [2]: reduce | Ethanol-induced overexpression of TLR-4 mRNA [2]: reduce | Ethanol-induced increase in TNF-α protein levels ([3]; frontal cortex, ELISA): not prevented | Ethanol-induced increase in TNF-α mRNA ([3]; frontal cortex): did not prevent | Increase in plasma TNF-α after ethanol intoxication ([3]; plasma, ELISA): partially prevented
